Assays:
[1] = target: T1, avidin (Gallus gallus, UniProt P02701); test: isothermal titration calorimetry; co-crystal structure […] Å; format: binding
T1 construct: gene AVD; homotetramer by known biology (monomers A and C mentioned)

[2] = target: T1, avidin; test: isothermal titration calorimetry; HABA assay; format: binding

T1 sequence (P02701 25-152): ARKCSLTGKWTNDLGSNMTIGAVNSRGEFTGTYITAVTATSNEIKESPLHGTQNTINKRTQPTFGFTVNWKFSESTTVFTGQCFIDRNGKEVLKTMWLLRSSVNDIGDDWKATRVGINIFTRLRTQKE

Row | Kd [1] | Kd [2] | SMILES
1 | 225 nM | – | O=C(CCCC[C@@H]1SC[C@@H]2NC(=O)N[C@@H]21)NCCc1cc([N+](=O)[O-])ccc1O [compound 7]
2 | – | 104 nM | CC(C)Cn1cnc2c(NC(=O)OCCOC(=O)Oc3ccc([N+](=O)[O-])cc3CCNC(=O)CCCC[C@@H]3SC[C@@H]4NC(=O)N[C@@H]43)nc3ccccc3c21 [compound 8, LDNPC (8)]

Reference: article PMC7702144, “A Ligand-Directed Nitrophenol Carbonate for Transient in situ Bioconjugation and Drug Delivery” (ChemMedChem, 2020)
